Measurements published in patent publication US8759363B2, “Quinazoline-based T cell proliferation inhibitors” (Yissum Research Development Company of the Hebrew …, priority 2010, dated 2014).
Entries after “also recorded” stand apart in the source; their conditions may differ.

Experiments:
[1] = tested on: IL-2 secretion by Jurkat and PBMC cells; assay: IL-2 secretion after stimulation, ELISA; assay type: cell-based, human; conditions: anti-TCR, anti-CD28, PMA, ionomycin, ConA stimulation; up to 5 μM inhibitor
Description: (§1) Jurkat or PBMC cells were treated for 12 h with 1 μM, 0.5 μM or no inhibitor. Cells (1×10^6) were plated in 24-well plates (Nunc) and stimulated by C305 (dilution 1:500), anti-CD28 (1:100), PMA (50 ng/ml) or ionomycin (1 μM) for 12 h. Alternately, cells were stimulated for 24, 48 and 72 h in MLR. After stimulation cells were centrifuged at 130×g for 5 minutes at room temperature.
(§2) Supernatants were collected and IL-2 was assayed using the IL-2 ELISA kit (BioSource International USA, KH0022) according to the manufacturer's instructions. Absorbance was read at 450 nm in an ELISA plate reader (ELx800 BIO-TEK Instruments Inc.).
Jurkat cells, which originate from leukemia, divide with no need of exogenous IL-2 stimulation since they produce their own, whereas PBMC proliferation requires exogenous IL-2 for growth. As expected, IL-2 secretion levels were lower in cells isolated from the blood (PBMC) than in Jurkat cells (FIGS. 5A-B). We analyzed the effect of 2 on IL-2 secretion in both Jurkat (FIG. 5A) and PBMC (FIG. 5B) cells, using a variety of T cell stimuli. Cells were stimulated with an antibody to the TCR alone or in combination with anti-CD28 or phorbol 12-myristate 13-acetate (PMA). In order to bypass the TCR, we also stimulated the cells with a combination of ionomycin, PMA and anti-CD28 (FIG. 5A). […]

PBMC and Jurkat cells = assay: Cell cycle analysis by FACS; assay type: cell-based, human; conditions: treated cells, 0.5 μM S101
Description: The effects of the inhibition of the cell cycle were analyzed with a fluorescence-activated cell sorter (FACS). Cells were grown in 60 mm diameter plates (Nunc) and were treated with inhibitor for 12 and 24 h. After the indicated time, cells were pooled, pelleted by centrifugation, washed in phosphate-buffered saline (PBS), and fixed with cold 70% ethanol for a minimum of 12 h. Cells were re-pelleted and resuspended in PBS. 50 μg/ml of RNase A was added in the dark for 30 minutes followed by 5 μg/ml of propidium iodide for FACS analysis (Becton Dickinson FACScan).
The fraction of cells in G2 increased from 30% in the untreated cells to 50% in the treated cells.

[2] = tested on: PC-3, HEK293, NIH-3T3, A375, MDA-MB-231; assay: BrdU uptake by non-hematopoietic cell lines compared with PBMC and Jurkat; assay type: cell-based; conditions: stimulated and non-stimulated cells
Description: Cells were depleted of fetal calf serum (FCS) for 12 hours. They were then stimulated to proliferate by addition of ConA (10 μg/ml) for PBMC from healthy individuals and for Jurkat cells, FCS (10%) for HEK293 and A375 cells, PDGF (30 ng/ml) for NIH 3T3 cells, and EGF (30 ng/ml) for MDA-MB-231, Cells (1×10^5) were cultured in 96-well plates for 3 days in the presence or absence of inhibitors at the concentrations specified in the text. Each condition was tested in duplicate wells.
Proliferation was assessed by BrdU incorporation using a colorimetric ELISA kit (Roche, Germany). Subsequent to labeling with 10 μM BrdU, DNA was denatured and the cells were incubated with anti-BrdU-POD, prior to the addition of colorimetric substrate (TMB). The reaction product was quantified by measuring absorbance at 450 nm in an ELISA plate reader (ELx800 BIO-TEK Instruments Inc.).
To characterize the mode of action of 2 (S101) in more detail, we first examined whether 2 inhibits non-hematopoietic cell lines. We studied the effect of 2 on the growth of four cell lines: NIH 3T3 (mouse embryonic fibroblasts), A-431 (human vulval carcinoma cells), MDA-MB-468 (human breast carcinoma cells), and PANC-1 (human pancreatic carcinoma cells) (FIGS. 1A-B). We also tested the inhibitors on human keratinocytes. […]

[3] = tested on: IL-2 secretion by 2C splenocytes stimulated by irradiated BALB/c splenocytes; assay: IL-2 levels in MLR supernatants; assay type: cell-based, mouse; conditions: 24, 48 and 72 h MLR; compound 2 up to 1 μM
Description: In the mixed lymphocyte reaction, stimulator cells cause responder cells to proliferate, owing to alloreactivity [Reich-Zeliger et al., 2004]. Splenocytes from 2c mice were stimulated by irradiated splenocytes from BALB/c mice in the presence of the evaluated compound at the concentrations specified. Cultures were incubated for 72 hours in 96-well plates.
as §1, §2
In vivo, T cells are stimulated by neighboring cells. In order to test the effect of 2 on cell-stimulated IL-2 secretion, the supernatants of splenocytes after 24, 48 and 72 h MLR were collected and analyzed for their IL-2 levels (FIG. 5C). […] At higher concentrations, no viable cells remained.

Compound: COc1cc(-c2nc(Nc3ccc(C)cc3)c3ccccc3n2)cc(OC)c1OC [Compound 2, N-p-tolyl-2-(3,4,5-trimethoxyphenyl)quinazolin-4-amine]
- effect on IL-2 levels in the medium [1]: no effect; also recorded: did not affect
- sub-G1 population (PBMC and Jurkat cells; untreated 2%): 9.5%
- fraction of cells in G2 (PBMC and Jurkat cells; untreated 30%): 50%
- IC50 values in various cells in comparison to IC50 for PBMC and Jurkat cells [2]: higher by two orders of magnitude
- IL-2 levels in MLR supernatants [3]: no visible decrease
